Laboratory results from publication PMC11191095, “QSAR Reveals Decreased Lipophilicity of Polar Residues Determines the Selectivity of Antimicrobial Peptide Activity” (ACS Omega, 2024).
Where a SMILES comes first, the peptide text is derived from it.

Tests used:
HaCat cell line = assay: In vitro HaCat cytotoxicity (MTT); type: cell-based, human; conditions: 21 h exposure, OD570, relative to untreated control
Procedure: The HaCat cell line (Cellonex, South Africa) was cultured in Dulbecco’s Modified Eagle Medium (DMEM) supplemented with 10% heat-inactivated fetal calf serum (FCS) and 1% antibiotic-antimycotic (Abs) and maintained at 5–10% CO2, 37 °C, 95% humidity. For cytotoxicity screening, 5.56 × 10^4 cells/mL were plated in a 96-well plate. After 24 h incubation, the cells are initially exposed to each peptide at a concentration of 256 μg/mL or 0.1% Triton-X-100 as the control for 21 h. If cytotoxicity was observed, at a level of significance of p < 0.0001 compared with the untreated control after 21 h, a dose-response assay was undertaken. Cell viability was determined by adding 10% 3-(4,5-dimethyl-2-thiazolyl)-2,5-diphenyl-2H-tetrazolium bromide (MTT) (1 mg/mL), to each well and after a further 3 h incubation the media was discarded, and the formazan crystals dissolved by adding 25% DMSO in ethanol. The absorbance was measured at OD570 by using the FLUOstar Omega multidetection microplate reader (BMG Labtech). Percentage cell viability was calculated relative to the untreated control. The LC50 was defined as the concentration of AMP treatment that results in 50% lethality of HaCat cells and was determined from the dose-response curves.

human erythrocytes = assay: In vitro hemolytic activity; type: cell-based; conditions: 1 h
Procedure: Potential erythrocyte hemolysis was tested by incubating serial dilutions of the AMPs in PBS with freshly collected erythrocytes at a ratio of 1:1 in 96-well polypropylene V-shape plates for 1 h at 37 °C. Control wells were treated with 0.1% Triton-X-100 to ensure complete lysis or PBS-only to represent no lysis. The erythrocytes were collected by centrifugation and the OD550 of the supernatant was measured using a plate reader. The percentage hemolysis was calculated as [drawing 1] 1 where Apeptide is the absorbance value of erythrocytes exposed to a known peptide concentration, Agrowth control is the absorbance of erythrocytes exposed to 0.1% Triton-X-100 and Ablank is the absorbance of erythrocytes exposed to the PBS. The concentrations at which a peptide caused 10% (HC10) and 50% (HC50) hemolysis was determined from the dose response curves.

C. tropicalis NCPF 8760 = assay: microbe, parasite or virus in culture; type: cell-based; conditions: NCPF 8760, 20 h
Method in brief: (§1)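 Peptides 128→2 μg/mL, 2-fold series; inoculum ~5 × 10^5 CFU/mL from overnight culture (OD600 0.01, mixed 1:1). MHB non-cation-adjusted for bacteria, RPMI 1640 + 2% glucose for fungi. 37 °C, 20 h, OD600. MIC50/MIC90 at 50%/90% inhibition; n ≥ 3.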

C. albicans NCPF 3281 = assay: microbe, parasite or virus in culture; type: cell-based; conditions: NCPF 3281, 20 h
Method in brief: as §1

[1] = system: C. parapsilosis NCPF 3209; assay: microbe, parasite or virus in culture; type: cell-based; conditions: NCPF 3209, 20 h
Method in brief: as §1

C. glabrata NCPF 8018 = assay: microbe, parasite or virus in culture; type: cell-based; conditions: NCPF 8018, 20 h
Method in brief: as §1

C. krusei NCPF 3876 = assay: microbe, parasite or virus in culture; type: cell-based; conditions: NCPF 3876, 20 h
Method in brief: as §1

K. pneumoniae M6 = assay: microbe, parasite or virus in culture; type: cell-based, Klebsiella pneumoniae; conditions: M6, 20 h
Method in brief: as §1

E. coli LEC001 = assay: microbe, parasite or virus in culture; type: cell-based, Escherichia coli; conditions: LEC001, 20 h
Method in brief: as §1

E. coli NCTC 12923 = assay: microbe, parasite or virus in culture; type: cell-based, Escherichia coli; conditions: NCTC 12923, 20 h
Method in brief: as §1

C. auris TDG 1912 = assay: microbe, parasite or virus in culture; type: cell-based, Candida auris; conditions: TDG 1912, 20 h
Method in brief: as §1

A. baumannii ATCC 17978 = assay: microbe, parasite or virus in culture; type: cell-based, Acinetobacter baumannii; conditions: ATCC 17978, 20 h
Method in brief: as §1

[2] = system: S. aureus (MSSA) ATCC 9144; assay: microbe, parasite or virus in culture; type: cell-based, Staphylococcus aureus; conditions: ATCC 9144, 20 h
Method in brief: as §1

CC[C@H](C)[C@H](NC(=O)[C@H](C)NC(=O)[C@H](Cc1c[nH]cn1)NC(=O)[C@@H]1CCCN1C(=O)[C@@H](NC(=O)[C@H](CC(C)C)NC(=O)[C@H](CO)NC(=O)[C@H](Cc1ccccc1)NC(=O)[C@H](CC(C)C)NC(=O)[C@@H](N)Cc1ccccc1)[C@@H](C)CC)C(=O)NCC(=O)NCC(=O)N[C@@H](CC(C)C)C(=O)N[C@H](C(=O)N[C@@H](CO)C(=O)N[C@@H](C)C(=O)N[C@@H](Cc1ccccc1)C(=O)N[C@@H](CCCCN)C(=O)O)[C@@H](C)CC [AamAP1]
% HaCat cell death at initial screening (256μg/mL) ± SD (HaCat cell line): 44.3 ±20.2%

CSCC[C@H](NC(=O)[C@H](CCSC)NC(=O)[C@H](CCCCN)NC(=O)CNC(=O)[C@@H](NC(=O)[C@@H](NC(=O)[C@H](CCCCN)NC(=O)[C@H](CC(C)C)NC(=O)CNC(=O)[C@H](Cc1ccccc1)NC(=O)[C@H](CCCCN)NC(=O)[C@H](Cc1ccccc1)NC(=O)[C@H](C)NC(=O)[C@H](CCCCN)NC(=O)CNC(=O)[C@H](CC(C)C)NC(=O)[C@H](CC(C)C)NC(=O)[C@H](CO)NC(=O)CNC(=O)[C@H](CC(C)C)NC(=O)CN)[C@@H](C)O)C(C)C)C(=O)NCC(=O)NCC(=O)N[C@@H](C)C(=O)N1CCC[C@H]1C(=O)N[C@@H](CCCNC(=N)N)C(=O)N[C@@H](CCC(=O)O)C(=O)N[C@@H](CCC(N)=O)C(=O)O [CPF-MW1] (H-GLGSLLGKAFKFGLKTVGKMMGGAPREQ-OH)
HC10 (concentration causing 10% hemolysis) (human erythrocytes; human erythrocytes in PBS, 37 °C, OD550, from dose response curves): 214 µg/mL
% hemolysis (human erythrocytes; red cells of human, 256 μg/mL): more than 10%
Modal MIC50 (C. tropicalis NCPF 8760): 21.6 µM
Modal MIC90 (C. tropicalis NCPF 8760): 21.6 µM
Modal MIC50 (C. albicans NCPF 3281): > 43.1 µM
Modal MIC90 (C. albicans NCPF 3281): > 43.1 µM
Modal MIC50 [1]: > 43.1 µM
Modal MIC90 [1]: > 43.1 µM
Modal MIC50 (C. glabrata NCPF 8018): > 43.1 µM
Modal MIC90 (C. glabrata NCPF 8018): > 43.1 µM
Modal MIC50 (C. krusei NCPF 3876): 10.8 µM
Modal MIC90 (C. krusei NCPF 3876): 10.8 µM
Modal MIC (K. pneumoniae M6): 5.4 µM
Modal MIC (E. coli LEC001): 2.7 µM
Modal MIC (E. coli NCTC 12923): 2.7 µM
Modal MIC50 (C. auris TDG 1912): > 43.1 µM
Modal MIC90 (C. auris TDG 1912): > 43.1 µM
Modal MIC (A. baumannii ATCC 17978): 1.4 µM
Modal MIC [2]: 1.4 µM
